From PMC6237173, “Synthesis of novel 6,7-dimethoxy-4-anilinoquinolines as potent c-Met inhibitors” (Journal of Enzyme Inhibition and Medicinal Chemistry, 2018)

Key:
c-Met kinase = target: T1, c-Met kinase (Homo sapiens, UniProt P08581); assay: c-Met inhibition assay (Caliper motility shift assay); assay type: biochemical; details: for c-Met inhibition % Inhibition (10 μΜ): 10 μΜ compound; for c-Met inhibition % Inhibition (10 μΜ) / IC50: n = 3 (mean ± SD); for c-Met inhibitory activity in words: SAR statement, ortho-substituted compounds; for fold lower c-Met activity than compound 12c: versus 12c
T1 construct: purchased Carna
T1 sequence (P08581 25-1390): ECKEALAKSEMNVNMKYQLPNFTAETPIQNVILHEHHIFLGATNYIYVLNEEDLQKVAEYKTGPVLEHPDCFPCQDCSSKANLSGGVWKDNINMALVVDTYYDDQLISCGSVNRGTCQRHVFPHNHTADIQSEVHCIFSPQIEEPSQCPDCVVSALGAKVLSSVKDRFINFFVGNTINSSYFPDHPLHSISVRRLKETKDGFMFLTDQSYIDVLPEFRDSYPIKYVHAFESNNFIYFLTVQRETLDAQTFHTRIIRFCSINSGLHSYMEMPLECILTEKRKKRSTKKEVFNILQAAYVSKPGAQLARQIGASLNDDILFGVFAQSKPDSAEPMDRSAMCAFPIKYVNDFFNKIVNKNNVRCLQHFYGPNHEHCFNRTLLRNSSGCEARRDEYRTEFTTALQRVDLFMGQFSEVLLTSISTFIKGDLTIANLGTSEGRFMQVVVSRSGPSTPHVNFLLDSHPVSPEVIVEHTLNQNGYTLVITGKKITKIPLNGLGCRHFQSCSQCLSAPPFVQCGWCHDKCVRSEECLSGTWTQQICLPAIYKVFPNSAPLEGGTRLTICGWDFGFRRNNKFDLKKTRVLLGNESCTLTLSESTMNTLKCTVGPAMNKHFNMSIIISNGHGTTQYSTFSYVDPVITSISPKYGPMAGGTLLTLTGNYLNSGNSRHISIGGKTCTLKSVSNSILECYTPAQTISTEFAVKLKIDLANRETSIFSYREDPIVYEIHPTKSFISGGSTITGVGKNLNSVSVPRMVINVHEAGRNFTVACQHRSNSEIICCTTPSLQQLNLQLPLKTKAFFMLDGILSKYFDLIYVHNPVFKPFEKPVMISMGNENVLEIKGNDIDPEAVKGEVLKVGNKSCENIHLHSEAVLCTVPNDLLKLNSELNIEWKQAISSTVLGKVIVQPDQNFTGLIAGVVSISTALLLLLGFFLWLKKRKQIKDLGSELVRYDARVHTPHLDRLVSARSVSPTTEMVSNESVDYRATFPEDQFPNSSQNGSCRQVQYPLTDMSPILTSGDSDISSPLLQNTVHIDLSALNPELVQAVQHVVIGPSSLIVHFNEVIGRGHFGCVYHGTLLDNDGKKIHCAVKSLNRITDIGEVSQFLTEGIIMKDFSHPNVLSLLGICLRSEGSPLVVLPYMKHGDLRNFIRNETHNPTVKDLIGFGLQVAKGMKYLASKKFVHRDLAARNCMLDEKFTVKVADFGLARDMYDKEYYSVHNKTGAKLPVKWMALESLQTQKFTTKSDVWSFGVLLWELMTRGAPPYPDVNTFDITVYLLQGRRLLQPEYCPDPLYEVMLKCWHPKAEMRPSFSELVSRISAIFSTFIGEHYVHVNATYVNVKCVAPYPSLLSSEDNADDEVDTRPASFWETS
Method: A Caliper motility shift assay was applied to test the potency of synthesised compounds against c-Met kinase. Briefly, the compounds were dissolved in DMSO (Sigma) at 0.5 mM concentration, and then were diluted 50× to the final desired highest inhibitor concentration (10 μM) in reaction by DMSO. For all compounds, 100 μL of the diluted compound solution in tubes was transferred to a well on a 96-well plate (Corning) and was serially diluted 10× by transferring 10 μL dilution to 90 μL DMSO in the next well. 100 μL DMSO was added to two empty wells in the same 96-well plate for no compound control and no enzyme control. The plate was marked as source plate. 10 μL of compound solution from source plate was transferred to a new 96-well plate as the intermediate plate. […] After that, 5 μL solution from each well of the intermediate plate was transferred to a 384-well plate (Corning) as the assay plate in duplicates.c-Met kinase (Carna) was added in 1× kinase base buffer to prepare 2.5× enzyme solution, and FAM-labled peptide (GL Biochem) and ATP (Sigma) were added in 1× kinase base buffer to prepare 2.5× peptide solution. 10 μL of 2.5× enzyme solution was added to each well of the 384-well assay plate that already contained 5 μL of compound in 10% DMSO, and then incubated at room temperature for 10 min. […] The data were collected on Caliper and the conversion data were copied from Caliper program.
IC50 values were calculated from three independent experiments by fitting the data in XLfit with the following equation: Y = Bottom + (Top-Bottom)/(1 + (IC50/X)^HillSlope).

[1] = test system: MKN-45 (human gastric cancer) cell line; assay: Cell proliferation assay (MTT), MKN-45; assay type: cell-based; details: 48 h exposure, n = 3 (mean ± SD), read-out: Proliferative inhibition IC50, MKN-45
Method: (§1) The anti-proliferative activities of the prepared compounds (12a-12s) were evaluated against A549, MCF-7 and MKN-45 cell lines by MTT assay in vitro. Briefly, tumour cells were cultured to log phase in RPMI 1640 medium supplemented with 10% foetal bovine serum (FBS). After diluting to 2 × 10^4 cells mL^−1 with the complete medium, 100 µL of the obtained cell suspension was added to each well of 96-well culture plates. Subsequently, incubation was performed at 37 °C in 5% CO2 for 24 h before the anti-proliferative assessment. Tested samples at pre-set concentrations were added to 6 wells with cabozantinib as a positive reference. After 48 h exposure period, 40 µL of PBS containing 2.5 mg mL^−1 of MTT was added to each well. Four hours later, 100 µL extraction solution (10% SDS-5% isobutyl alcohol-0.010M HCl) was added. After an overnight incubation at 37°C, the absorbance was measured at a wavelength of 570 nm with an ELISA microplate reader. All compounds were tested three times in each tumour cell lines. The IC50 values were the averages of three determinations and calculated by concentration-response curve fitting method.
(§2) All the synthesised compounds […] were evaluated for their antiproliferation activities against A549 (human lung cancer), MCF-7 (human breast cancer) and MKN-45 (human gastric cancer) cell lines by MTT assay, using cabozantinib as the positive control.

[2] = test system: MCF-7 (human breast cancer) cell line; assay: Cell proliferation assay (MTT), MCF-7; assay type: cell-based; details: MCF7, 48 h exposure, n = 3 (mean ± SD), read-out: Proliferative inhibition IC50, MCF-7
Method: as §1, §2

[3] = test system: A549 (human lung cancer) cell line; assay: Cell proliferation assay (MTT), A549; assay type: cell-based; details: 48 h exposure, n = 3 (mean ± SD), read-out: Proliferative inhibition IC50, A549
Method: as §1, §2

| Compound | c-Met inhibition % Inhibition (10 μΜ) (c-Met kinase) | c-Met inhibitory activity in words (c-Met kinase) | IC50 [1] | IC50 [2] | IC50 [3] | melting point | IC50 (c-Met kinase) | fold more potent c-Met activity than compound 12b (c-Met kinase; ratio of c-Met IC50 values, versus 12b) | fold lower c-Met activity than compound 12c (c-Met kinase; ratio of c-Met IC50 values) |
| --- | --- | --- | --- | --- | --- | --- | --- | --- | --- |
| COc1cc2nccc(Nc3ccc4nc(-c5ccccc5F)[nH]c4c3)c2cc1OC [Compound 12a, N-(2–(2-fluorophenyl)-1H-benzo[d]imidazol-6-yl)-6,7-dimethoxyquinolin-4-amine] | 16.9 ± 3.5% | diminished activity | > 100 µM | > 100 µM | > 100 µM | 247 to 249 °C | – | – | – |
| COc1cc2nccc(Nc3ccc4nc(-c5cccc(F)c5)[nH]c4c3)c2cc1OC [Compound 12b, N-(2–(3-fluorophenyl)-1H-benzo[d]imidazol-6-yl)-6,7-dimethoxyquinolin-4-amine] | 62.8 ± 1.2% | – | 57.5 ± 1.9 µM | 48.6 ± 5.2 µM | 45 ± 3.3 µM | 286 to 288 °C | 1.2 ± 0.4 µM | – | – |
| COc1cc2nccc(Nc3ccc4nc(-c5ccc(F)cc5)[nH]c4c3)c2cc1OC [Compound 12c, N-(2–(4-fluorophenyl)-1H-benzo[d]imidazol-6-yl)-6,7-dimethoxyquinolin-4-amine] | 89.2 ± 0.3% | – | 21 ± 1.8 µM | 11.3 ± 1.6 µM | 15.6 ± 2.5 µM | 312 to 315 °C | 0.11 ± 0.02 µM | 11 fold | – |
| COc1cc2nccc(Nc3ccc4nc(-c5ccccc5Cl)[nH]c4c3)c2cc1OC [Compound 12d, N-(2–(2-chlorophenyl)-1H-benzo[d]imidazol-6-yl)-6,7-dimethoxyquinolin-4-amine] | 17.4 ± 3.7% | – | > 100 µM | > 100 µM | > 100 µM | 287 to 290 °C | – | – | – |
| COc1cc2nccc(Nc3ccc4nc(-c5cccc(Cl)c5)[nH]c4c3)c2cc1OC [Compound 12e, N-(2–(3-chlorophenyl)-1H-benzo[d]imidazol-6-yl)-6,7-dimethoxyquinolin-4-amine] | 54.5 ± 6.9% | – | 85.7 ± 3.7 µM | 63.5 ± 4.8 µM | 53.8 ± 5 µM | 250 to 252 °C | 4.8 ± 0.5 µM | – | – |
| COc1cc2nccc(Nc3ccc4nc(-c5ccc(Cl)cc5)[nH]c4c3)c2cc1OC [Compound 12f, N-(2–(4-chlorophenyl)-1H-benzo[d]imidazol-6-yl)-6,7-dimethoxyquinolin-4-amine] | 63.8 ± 0.7% | – | 39.5 ± 2.5 µM | 29.2 ± 1.4 µM | 32.4 ± 3.6 µM | 330 to 332 °C | 0.93 ± 0.1 µM | – | about 9 fold |
| COc1cc2nccc(Nc3ccc4nc(-c5ccc(Br)cc5)[nH]c4c3)c2cc1OC [Compound 12g, N-(2–(4-bromophenyl)-1H-benzo[d]imidazol-6-yl)-6,7-dimethoxyquinolin-4-amine] | 54.2 ± 0.1% | – | 55 ± 3.4 µM | 46.3 ± 3.7 µM | 38.5 ± 2.4 µM | 280 to 282 °C | 5.5 ± 0.9 µM | – | about 50 fold |
| COc1cc2nccc(Nc3ccc4nc(-c5ccccc5I)[nH]c4c3)c2cc1OC [Compound 12h, N-(2–(2-iodophenyl)-1H-benzo[d]imidazol-6-yl)-6,7-dimethoxyquinolin-4-amine] | 21.6 ± 2.5% | – | > 100 µM | > 100 µM | 92.4 ± 5.1 µM | 207 to 209 °C | – | – | – |
| COc1cc2nccc(Nc3ccc4nc(-c5cccc(I)c5)[nH]c4c3)c2cc1OC [Compound 12i, N-(2–(3-iodophenyl)-1H-benzo[d]imidazol-6-yl)-6,7-dimethoxyquinolin-4-amine] | 66.0 ± 0.8% | – | 36.1 ± 2.7 µM | 30.5 ± 1.6 µM | 23.8 ± 2 µM | 201 to 203 °C | 0.54 ± 0.13 µM | – | – |
| COc1cc2nccc(Nc3ccc4nc(-c5ccccc5C)[nH]c4c3)c2cc1OC [Compound 12j, 6,7-Dimethoxy-N-(2-(o-tolyl)-1H-benzo[d]imidazol-6-yl)quinolin-4-amine] | 23.0 ± 0.4% | – | > 100 µM | > 100 µM | > 100 µM | 174 to 175 °C | – | – | – |
| COc1cc2nccc(Nc3ccc4nc(-c5cccc(C)c5)[nH]c4c3)c2cc1OC [Compound 12k, 6,7-Dimethoxy-N-(2-(m-tolyl)-1H-benzo[d]imidazol-6-yl)quinolin-4-amine] | 52.7 ± 1.6% | – | 87.2 ± 6.7 µM | 78.3 ± 3.5 µM | 72.6 ± 6.5 µM | 339 to 342 °C | 8.5 ± 2 µM | – | – |
| COc1cc2nccc(Nc3ccc4nc(-c5ccc(C)cc5)[nH]c4c3)c2cc1OC [Compound 12l, 6,7-Dimethoxy-N-(2-(p-tolyl)-1H-benzo[d]imidazol-6-yl)quinolin-4-amine] | 69.0 ± 1.2% | – | 31.8 ± 1.4 µM | 24 ± 0.9 µM | 27.3 ± 1.6 µM | 316 to 319 °C | 0.32 ± 0.07 µM | – | – |
| CCc1ccc(-c2nc3ccc(Nc4ccnc5cc(OC)c(OC)cc45)cc3[nH]2)cc1 [Compound 12m, N-(2–(4-ethylphenyl)-1H-benzo[d]imidazol-6-yl)-6,7-dimethoxyquinolin-4-amine] | 95.0 ± 0.3% | – | 14.9 ± 0.7 µM | 18.4 ± 2.1 µM | 12.5 ± 1.3 µM | 210 to 212 °C | 0.056 ± 0.012 µM | – | – |
| COc1cc2nccc(Nc3ccc4nc(-c5ccc(C(C)(C)C)cc5)[nH]c4c3)c2cc1OC [Compound 12n, N-(2–(4-(tert-butyl)phenyl)-1H-benzo[d]imidazol-6-yl)-6,7-dimethoxyquinolin-4-amine] | 97.1 ± 3.5% | – | 13.4 ± 0.5 µM | 6.1 ± 0.6 µM | 7.3 ± 1 µM | 257 to 259 °C | 0.03 ± 0.008 µM | – | – |
| COc1cc2nccc(Nc3ccc4nc(-c5ccccc5OC)[nH]c4c3)c2cc1OC [Compound 12o, 6,7-Dimethoxy-N-(2–(2-methoxyphenyl)-1H-benzo[d]imidazol-6-yl)quinolin-4-amine] | 24.2 ± 0.1% | – | > 100 µM | > 100 µM | > 100 µM | 164 to 166 °C | – | – | – |
| COc1cc2nccc(Nc3ccc4nc(-c5c(F)cccc5F)[nH]c4c3)c2cc1OC [Compound 12p, N-(2–(2,6-difluorophenyl)-1H-benzo[d]imidazol-6-yl)-6,7-dimethoxyquinolin-4-amine] | 25.9 ± 1.5% | loss of activity | > 100 µM | > 100 µM | > 100 µM | 208 to 210 °C | – | – | – |
| COc1cc2nccc(Nc3ccc4nc(-c5c(Cl)cccc5Cl)[nH]c4c3)c2cc1OC [Compound 12q, N-(2–(2,6-dichlorophenyl)-1H-benzo[d]imidazol-6-yl)-6,7-dimethoxyquinolin-4-amine] | 37.0 ± 4.0% | loss of activity | > 100 µM | > 100 µM | > 100 µM | 254 to 257 °C | – | – | – |
| COc1cc2nccc(Oc3ccc(NC(=O)C4(C(=O)Nc5ccc(F)cc5)CC4)cc3)c2cc1OC [cabozantinib, reference compound] | – | – | 11.8 ± 1.4 µM | 7.2 ± 0.5 µM | 4.5 ± 0.8 µM | – | – | – | – |
